Experimental data from US6875757B2, “LPA receptor agonists and antagonists and methods of use” (University of Tennessee Research Foundation, priority 2000, dated 2005).
Where a name gives a salt, the structure may show the parent alone. Read-outs that look alike come from different tables or passages of the source. Values belong to the compound of their own block, whether it stands above or below them.

Columns and labels:
[1] = tested on: DU-145 prostate cancer cell line; assay: Cytotoxicity / growth inhibition (SRB), DU145; format: cell-based; conditions: read-out: IC50 ± SEM, DU145
Protocol: (§1) Cells were removed from stock flasks using trypsin, centrifuged, resuspended in fresh media, and plated at a density of approximately 2,000 cells/well in 96-well culture plates. Final drug concentrations ranged from 0.05 to either 10 or 50 μM. Control experiments with no drug added (negative control) and 5-fluorouracil added (positive control) were performed in parallel. Media was removed and replaced at 48 hours to minimize the effects of drug degradation during the course of the experiment. After 96 hours drug exposure, cells were fixed by the addition of cold 50% trichloroacetic acid (TCA) and incubation at 4° C. for 1 hour. Fixed cells were stained with sulforhodamine B (SRB), and cell number was determined by comparison of absorbance at 540 nm, as compared to a standard curve of cell number versus absorbance. Experiments were performed in duplicate.

PSP24 PLGFR = PSP24 PLGFR (Xenopus laevis, UniProt P79945); assay: Xenopus oocyte assay: LPA-induced oscillatory chloride currents (two-electrode voltage clamp); format: cell-based; conditions: for inhibition of LPA-induced chloride currents: Xenopus oocytes, extracellular application; for reversibility of inhibition of LPA-induced chloride currents: after washing the oocyte; for threshold to elicit a response alone: compound alone, agonist response
Protocol: Xenopus oocytes which endogenously express PSP24 PLGFR were used to screen the newly designed and synthesized compounds for their LPA inhibitory activity.
(§2) Oocytes were obtained from xylazine-anesthetized adult Xenopus laevis frogs (Carolina Scientific, Burlington, N.C.) under aseptic conditions and prepared for experiment. […] Oocytes were kept in Barth's solution in an incubator between 17-20° C. and were used for 2-7 days after isolation.
(§3) Electrophysiological recordings were carried out using a standard two-electrode voltage-clamp amplifier holding the membrane potential at −60 mV (GeneClamp 500, Axon Instruments, Calif.). […] Membrane currents were recorded with a NIC-310 digital oscilloscope (Nicolet, Madison, Wis.). Applications were made at intervals of 15 mins (minimum) to allow for the appropriate washout and recovery from desensitization.
as §2
as §3, with “CA).” for “Calif.).”

[2] = tested on: LNCaP prostate cancer cell line; assay: Cytotoxicity / growth inhibition (SRB), LNCaP; format: cell-based; conditions: 96 hours drug exposure, read-out: IC50 ± SEM, LNCaP
Protocol: as §1

human Edg-2 = biological target: T1, human Edg-2 (Homo sapiens, UniProt Q92633); assay: Ca2+ responses (Fura-2) in RH7777 cells expressing Edg-2; format: cell-based
T1 construct: expressed in transfected cells
Protocol: (§4) RH7777 cells were transfected with the cDNA constructs encoding human Edg-2, Edg-4, or Edg-7 and then were subcloned into the pCDNA3 expression vector using the Cytofectene transfection reagent according to the manufacturers' protocol. Transfected cells were selected in DMEM containing 10% FBS and 1 mg/ml geneticin. Resistant cells were collected and subcloned by limiting dilution. The resulting clones were then screened using functional assays and RT-PCR analysis. Data are representative of three individual clones.

human Edg-4 = biological target: T2, human Edg-4 (Homo sapiens, UniProt Q9HBW0); assay: Ca2+ responses (Fura-2) in RH7777 cells expressing Edg-4 (stable or transient); format: cell-based
T2 construct: expressed in transfected cells
Text: RH7777 cells, stably expressing human Edg-4, were kindly provided by Dr. Kevin Lynch (University of Virginia, Charlottesville, Va.). Flag-tagged cDNA's encoding human Edg-4 and -7 inserted into the pCDNA3 expression plasmid (Invitrogen, Carlsbad, Calif.), were a generous gift from Dr. Junken Aoki (University of Tokyo, Tokyo, Japan). RH7777 and NIH3T3 cells were obtained from the American Type Culture Collection (Manassas, Va.). HEY cells were provided by Dr. Lisa Jennings (University of Tennessee, Memphis). All cell lines were maintained in Dulbecco's Modified Eagle's Medium (DMEM) containing 10% FBS and 2 mM glutamine. Oocytes were obtained from adult Xenopus laevis frogs as previously described (Tigyi et al., 1999).
as §4
RH7777 cells were plated on polylysine-coated glass coverslips (Bellco, Vineland, N.J.) one day prior to transfection. The following day, cells were transfected overnight (16-18 hr) with 1 μg of plasmid DNA mixed with 6 μl of Cytofectene. The cells were then rinsed twice with DMEM and cultured in DMEM containing 10% FBS. The next day, the cells were rinsed with DMEM and serum was withdrawn for a minimum of 2 hr prior to monitoring intracellular Ca^2+.

human Edg-7 = biological target: T3, human Edg-7 (Homo sapiens, UniProt Q9UBY5); assay: Ca2+ responses (Fura-2) in RH7777 cells expressing Edg-7; format: cell-based; conditions: for effect on LPA-elicited Ca2+ responses: 250 nM LPA 18:1 mixed with 500 nM lipid
T3 construct: Flag; expressed in transfected cells
T3 sequence (Q9UBY5 1-353): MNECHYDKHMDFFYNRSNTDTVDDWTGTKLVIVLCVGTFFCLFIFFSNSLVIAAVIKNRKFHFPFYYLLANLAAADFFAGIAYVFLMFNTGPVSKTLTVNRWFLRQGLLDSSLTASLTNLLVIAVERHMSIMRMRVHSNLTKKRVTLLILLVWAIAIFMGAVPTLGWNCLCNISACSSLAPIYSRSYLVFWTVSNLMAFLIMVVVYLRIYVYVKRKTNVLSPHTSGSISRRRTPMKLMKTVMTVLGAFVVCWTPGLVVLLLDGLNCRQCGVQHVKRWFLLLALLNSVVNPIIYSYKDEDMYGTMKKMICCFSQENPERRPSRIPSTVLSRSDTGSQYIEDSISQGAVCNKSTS
Protocol: as §4

[3] = tested on: PC-3 prostate cancer cell line; assay: Cytotoxicity / growth inhibition (SRB), PC-3; format: cell-based; conditions: 96 hours drug exposure, read-out: IC50 ± SEM, PC-3
Protocol: as §1

[4] = LPA 18:1 near the EC50 combined with compound 108
[5] = Homo sapiens, DU-145, 96 hours drug exposure
[6] = 250 nM LPA 18:1 mixed with 10 μM lipid
[7] = alone, concentrations as high as 10 μM
[8] = mixture of LPA 8:0 and LPA 18:1

T1 sequence (Q92633 whole entry): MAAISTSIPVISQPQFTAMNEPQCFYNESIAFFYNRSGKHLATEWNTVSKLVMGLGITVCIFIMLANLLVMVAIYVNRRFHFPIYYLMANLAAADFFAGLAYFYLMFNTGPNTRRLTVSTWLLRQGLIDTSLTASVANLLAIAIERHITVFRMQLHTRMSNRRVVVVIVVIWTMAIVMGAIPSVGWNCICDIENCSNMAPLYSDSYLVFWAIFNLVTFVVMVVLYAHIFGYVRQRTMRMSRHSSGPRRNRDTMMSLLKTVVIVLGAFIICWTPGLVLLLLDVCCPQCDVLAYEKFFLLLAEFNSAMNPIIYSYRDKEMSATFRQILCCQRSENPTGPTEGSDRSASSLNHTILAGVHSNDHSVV
T2 sequence (Q9HBW0 whole entry): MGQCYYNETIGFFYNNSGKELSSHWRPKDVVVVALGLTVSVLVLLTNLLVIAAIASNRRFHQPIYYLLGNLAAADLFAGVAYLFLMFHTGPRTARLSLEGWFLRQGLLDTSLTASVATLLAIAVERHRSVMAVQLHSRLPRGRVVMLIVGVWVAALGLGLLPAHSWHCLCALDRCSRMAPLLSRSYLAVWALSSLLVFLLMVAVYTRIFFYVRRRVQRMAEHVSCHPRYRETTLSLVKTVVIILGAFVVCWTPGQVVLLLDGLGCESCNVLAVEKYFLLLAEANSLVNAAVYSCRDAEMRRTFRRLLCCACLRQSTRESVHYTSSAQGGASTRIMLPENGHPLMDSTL
Chain of PSP24 PLGFR (P79945 whole entry): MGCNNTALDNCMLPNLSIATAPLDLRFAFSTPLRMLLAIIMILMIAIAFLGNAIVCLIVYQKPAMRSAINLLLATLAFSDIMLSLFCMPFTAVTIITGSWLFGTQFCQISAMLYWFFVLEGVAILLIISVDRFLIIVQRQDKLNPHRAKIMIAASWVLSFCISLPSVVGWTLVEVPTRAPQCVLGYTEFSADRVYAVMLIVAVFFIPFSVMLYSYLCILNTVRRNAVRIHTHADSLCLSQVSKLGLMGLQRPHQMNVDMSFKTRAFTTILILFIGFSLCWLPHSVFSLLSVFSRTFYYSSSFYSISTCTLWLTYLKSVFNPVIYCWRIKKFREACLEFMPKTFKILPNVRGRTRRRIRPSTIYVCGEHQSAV

Compound: CCCCCCCCCCCCCCCCCCNC(=O)C(N)CO.O=C(O)C(F)(F)F (stereo not drawn)
melting point: 170 to 172 °C

Compound: CCCCCCCCCCCCCCOc1ccc(NC(=O)C(N)CO)cc1 (stereo not drawn) [Compound 38, N-1-[4-(tetradecyloxy)phenyl]-2-amino-3-hydroxypropanamide trifluoroacetate]
IC50 ([1]; 96 hours drug exposure): 38.9 ± 8.9 µM

Compound: CCCCCCCCCCCCCCNC(=O)C(N)COP(=O)(O)O (stereo not drawn) [Compound 56, 2-Amino-3-oxo-3-(tetradecylamino)propyl dihydrogen phosphate]
inhibition of LPA-induced chloride currents (PSP24 PLGFR): inhibitors of LPA-induced chloride current
reversibility of inhibition of LPA-induced chloride currents (PSP24 PLGFR): reversible

Compound: CCCCCCCCCCCCCCCCCCNC(=O)C(N)COP(=O)(O)O (stereo not drawn) [Compound 57, 2-Amino-3-(octadecylamino)-3-oxopropyl dihydrogen phosphate]
inhibition of LPA-induced chloride currents (PSP24 PLGFR): inhibitors of LPA-induced chloride current
reversibility of inhibition of LPA-induced chloride currents (PSP24 PLGFR): reversible

Compound: CCCCCCCCCCCCCCCCCCC(=O)OCC(COP(=O)(O)O)OP(=O)(O)O (stereo not drawn) [Compound 90, 1,2-(3-Nonadecanoyloxypropane)-bis(dihydrogen phosphate)]
IC50 ([1]; 96 hours drug exposure): > 50 µM

Compound: CCCCCCCCCCCCCCCCCCCC(=O)OCC(COP(=O)(O)O)OP(=O)(O)O (stereo not drawn) [Compound 91, 1,2-(3-Icosanoyloxypropane)-bis(dihydrogen phosphate)]
IC50 ([1]; 96 hours drug exposure): 42.2 ± 1.9 µM

Compound: O=c1[nH]cc(F)c(=O)[nH]1 [Fluorouracil, 5-fluorouracil]
IC50 [1, 5]: 6.8 ± 3.3 µM
IC50 ([2]; Homo sapiens, LNCaP): 2.8 ± 1.6 µM
IC50 [3]: 10.2 ± 4.1 µM

Compound: CCCCCCCCCCCCC/C=C/[C@@H](O)[C@@H](N)COP(=O)(O)O [SPP (13:0), sphingosine-1-phosphate]
IC50 [1, 5]: > 10 µM
IC50 [3]: > 50 µM

Continued, in another order:

threshold to elicit a response alone (PSP24 PLGFR): ~1000 nM
Compound: CCCCCCCCCCCCOCC(COP(=O)(O)O)OP(=O)(O)O (stereo not drawn) [Compound 67, 1,2-(3-Dodecyloxypropane)-bis(dihydrogen phosphate)]
IC50 [2]: 25.2 ± 12.3 µM

threshold to elicit a response alone (PSP24 PLGFR): ~10 nM
Compound: CCCCCCCCCCCCCCCCOCC(COP(=O)(O)O)OP(=O)(O)O (stereo not drawn) [Compound 68, 1,2-(3-Hexadecyloxypropane)-bis(dihydrogen phosphate)]
IC50 [2]: 29.3 ± 21.7 µM

threshold to elicit a response alone (PSP24 PLGFR): ~100 nM
Compound: CCCCCCCCCCCCCC(=O)OCC(COP(=O)(O)O)OP(=O)(O)O (stereo not drawn) [Compound 85, 1,2-(3-Tetradecanoyloxypropane)-bis(dihydrogen phosphate)]
IC50 [2]: 11.6 ± 10.3 µM

inhibition of LPA-induced response (PSP24 PLGFR; against 2 nM LPA, compound concentration not given): 59%
Compound: CCCCCCCCCCCCCCCCCC(=O)OCC(COP(=O)(O)O)OP(=O)(O)O (stereo not drawn) [Compound 89, 1,2-(3-Octadecanoyloxypropane)-bis(dihydrogen phosphate)]

reversibility of inhibition of LPA-induced chloride currents (PSP24 PLGFR): reversible
Compound: CCCCCCCCCCCCCCCCCCCCCC(=O)OCC(COP(=O)(O)O)OP(=O)(O)O (stereo not drawn) [Compound 92, 1,2-(3-Docosanoyloxypropane)-bis(dihydrogen phosphate)]
inhibition of LPA-induced chloride currents (PSP24 PLGFR): inhibitors of LPA-induced chloride current

Ca2+ responses, % of control (human Edg-2; [4]): about 63 % of control
Ca2+ responses, % of control (human Edg-4; [4]): about 148 % of control
Ca2+ responses, % of control (human Edg-7; [4]): ~56 % of control
Compound: CCCCCCCCCCCCOP(=O)(O)O [Compound 108, Phosphoric Acid Monododecyl Ester]

Ca2+ response, % of control (human Edg-2; [6]): 64 % of control
Compound: diacyl glycerol [DAG 8:0]
effect on LPA-elicited Ca2+ responses (human Edg-7): significantly increased the Ca^2+ responses

inhibitory effect on LPA-elicited Ca2+ response (human Edg-2; [6]): no longer had an inhibitory effect
effect on LPA-elicited Ca2+ responses (human Edg-7): did not have an inhibitory effect
Compound: diacyl glycerol [DAG 18:1]

Ca2+ response elicited alone (human Edg-2; [7]): unable to elicit Ca^2+ responses
effect of mixture with LPA 18:1 on Ca2+ responses (human Edg-2; [8]): not effected
Ca2+ response elicited alone (human Edg-4; [7]): unable to elicit Ca^2+ responses
effect of mixture with LPA 18:1 on Ca2+ responses (human Edg-4; mixture of LPA 8:0 and LPA 18:1, stable cells): not effected
effect on LPA-elicited Ca2+ responses (human Edg-7): had no effect
Ca2+ response elicited alone (human Edg-7; [7]): unable to elicit Ca^2+ responses
effect of mixture with LPA 18:1 on Ca2+ responses (human Edg-7; [8]): not effected
Compound: lysophosphatidic acid [LPA 8:0]

EC50 (PSP24 PLGFR; LPA alone, FIG. 37, read-out: EC50 of LPA alone (positive control solution)): 0.025 µM
EC50 (human Edg-2; stable Edg-2 expressing cells, read-out: EC50, Ca2+ transients): 0.378 ± 0.053 µM
Compound: lysophosphatidic acid [LPA (18:1)]
IC50 [3]: 28.5 ± 6.3 µM
